Measured values taken from patent US10294202B2, “Pyrrolidinones as herbicides” (FMC Corporation, priority 2013, dated 2019).

Key:
wheat (winter wheat) = experiment: Test C pre-/postemergence herbicide test; assay type: in vivo, Triticum aestivum; details: for Plant response rating, Wheat: Postemergence
How it was run: (§1)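 Herbicidal effect was judged by eye 13 to 15 days after treatment in the greenhouse, using a 0–100 scale against controls. Chemicals in a non-phytotoxic solvent with surfactant were sprayed onto planted loam/sand soil or onto plants 2 to 18 cm tall in a peat-based growing medium.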

soybean = experiment: Test C pre-/postemergence herbicide test; assay type: in vivo, Glycine max
How it was run: as §1

pigweed = experiment: Test C pre-/postemergence herbicide test; assay type: in vivo, Amaranthus retroflexus
How it was run: as §1

oat, wild = experiment: Test C pre-/postemergence herbicide test; assay type: in vivo, Avena fatua; details: Postemergence
How it was run: as §1

corn = experiment: Test C pre-/postemergence herbicide test; assay type: in vivo, Zea mays
How it was run: as §1

morningglory = experiment: Test C pre-/postemergence herbicide test; assay type: in vivo, Ipomoea coccinea
How it was run: as §1

barnyardgrass [1] = experiment: Test B flooded paddy test; assay type: in vivo, Echinochloa crus-galli; details: 500 g ai/ha, Flood; scale of 0 to 100 where 0 is no effect and 100 is complete control
How it was run: (§2)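 First, plants reach the 2-leaf stage; next, pots are flooded to 3 cm and compound is delivered into the water; finally, after 13 to 15 greenhouse days at constant depth, injury is graded visually from 0 to 100 against controls.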

ryegrass, Italian = experiment: Test C pre-/postemergence herbicide test; assay type: in vivo, Lolium multiflorum
How it was run: as §1

lambsquarters = experiment: Test C pre-/postemergence herbicide test; assay type: in vivo, Chenopodium album
How it was run: as §1

ragweed = experiment: Test C pre-/postemergence herbicide test; assay type: in vivo, Ambrosia elatior
How it was run: as §1

waterhemp = experiment: Test C pre-/postemergence herbicide test; assay type: in vivo, Amaranthus rudis
How it was run: as §1

ducksalad = experiment: Test B flooded paddy test; assay type: in vivo, Heteranthera limosa; details: 500 g ai/ha, Flood; scale of 0 to 100 where 0 is no effect and 100 is complete control
How it was run: as §2

galium = experiment: Test C pre-/postemergence herbicide test; assay type: in vivo, Galium aparine
How it was run: as §1

barnyardgrass [2] = experiment: Test C pre-/postemergence herbicide test; assay type: in vivo, Echinochloa crus-galli
How it was run: as §1

sedge, umbrella = experiment: Test B flooded paddy test; assay type: in vivo, Cyperus difformis; details: 500 g ai/ha, Flood; scale of 0 to 100 where 0 is no effect and 100 is complete control
How it was run: as §2

[3] = 31 g ai/ha, scale 0 to 100 (0 no effect, 100 complete control)
[4] = 62 g ai/ha, scale 0 (no effect) to 100 (complete control)
[5] = 125 g ai/ha, scale 0 to 100 (0 no effect, 100 complete control)
[6] = 250 g ai/ha, scale 0 to 100 (0 no effect, 100 complete control)
[7] = Preemergence, 31 g ai/ha, scale 0 to 100, 0 is no effect and 100 is complete control
[8] = Preemergence, 62 g ai/ha, scale 0 to 100 (0 no effect, 100 complete control)
[9] = Postemergence, 31 g ai/ha, scale 0 to 100 (0 no effect, 100 complete control)
[10] = Postemergence, 62 g ai/ha, scale 0 (no effect) to 100 (complete control)
[11] = Postemergence, 125 g ai/ha, scale 0 to 100 (0 no effect, 100 complete control)
[12] = Postemergence, 250 g ai/ha, scale 0 to 100 (0 no effect, 100 complete control)
[13] = Preemergence, 125 g ai/ha, scale 0 to 100 (0 no effect, 100 complete control)

SMILES: CN1CC(c2ccc(F)c(F)c2)C(C(=O)Nc2ccccc2F)C1=O (stereo not shown) [Compound 302]
- Plant response rating, Wheat (wheat (winter wheat); [3]): 0
- Plant response rating, Wheat (wheat (winter wheat); [4]): 0
- Plant response rating, Wheat (wheat (winter wheat); [5]): 0
- Plant response rating, Wheat (wheat (winter wheat); [6]): 0
- Wheat plant response rating (wheat (winter wheat); [7]): 0
- Wheat plant response rating (wheat (winter wheat); [8]): 5
- Plant response rating (scale of 0 to 100), Wheat (wheat (winter wheat); Preemergence, 250 g ai/ha): 30
- Plant response rating, Soybean (soybean; [9]): 0
- Plant response rating, Soybean (soybean; [10]): 0
- Plant response rating, Soybean (soybean; [11]): 0
- Plant response rating, Soybean (soybean; [12]): 65
- Soybean plant response rating (soybean; [7]): 0
- Soybean plant response rating (soybean; [8]): 30
- Plant response rating, Soybean (soybean; [13]): 0
- Plant response rating (scale of 0 to 100), Soybean (soybean; Preemergence, 250 g ai/ha): 0
- Plant response rating, Pigweed (pigweed; [9]): 15
- Plant response rating, Pigweed (pigweed; [10]): 20
- Plant response rating, Pigweed (pigweed; [11]): 20
- Plant response rating, Pigweed (pigweed; [12]): 30
- Pigweed plant response rating (pigweed; [7]): 0
- Pigweed plant response rating (pigweed; [8]): 20
- Plant response rating, Pigweed (pigweed; [13]): 25
- Plant response rating (scale of 0 to 100), Pigweed (pigweed; Preemergence, 250 g ai/ha): 0
- Plant response rating, Oat, Wild (oat, wild; [3]): 0
- Plant response rating, Oat, Wild (oat, wild; [4]): 0
- Plant response rating, Oat, Wild (oat, wild; [5]): 0
- Plant response rating, Oat, Wild (oat, wild; [6]): 0
- Plant response rating, Corn (corn; [9]): 0
- Plant response rating, Corn (corn; [10]): 0
- Plant response rating, Corn (corn; [11]): 0
- Plant response rating, Corn (corn; [12]): 0
- Corn plant response rating (corn; [7]): 0
- Corn plant response rating (corn; [8]): 0
- Plant response rating, Corn (corn; [13]): 0
- Plant response rating (scale of 0 to 100), Corn (corn; Preemergence, 250 g ai/ha): 50
- Plant response rating, Morningglory (morningglory; [9]): 10
- Plant response rating, Morningglory (morningglory; [10]): 15
- Plant response rating, Morningglory (morningglory; [11]): 50
- Plant response rating, Morningglory (morningglory; [12]): 25
- Morningglory plant response rating (morningglory; [7]): 0
- Morningglory plant response rating (morningglory; [8]): 0
- Plant response rating, Morningglory (morningglory; [13]): 0
- Plant response rating (scale of 0 to 100), Morningglory (morningglory; Preemergence, 250 g ai/ha): 0
- Plant response rating, Barnyardgrass (barnyardgrass [1]): 80
- Plant response rating, Ryegrass, Italian (ryegrass, Italian; [9]): 0
- Plant response rating, Ryegrass, Italian (ryegrass, Italian; [10]): 0
- Plant response rating, Ryegrass, Italian (ryegrass, Italian; [11]): 0
- Plant response rating, Ryegrass, Italian (ryegrass, Italian; [12]): 0
- Ryegrass, Italian plant response rating (ryegrass, Italian; [7]): 0
- Ryegrass, Italian plant response rating (ryegrass, Italian; [8]): 0
- Plant response rating, Ryegrass, Italian (ryegrass, Italian; [13]): 5
- Plant response rating (scale of 0 to 100), Ryegrass, Italian (ryegrass, Italian; Preemergence, 250 g ai/ha): 40
- Plant response rating, Lambsquarters (lambsquarters; [9]): 10
- Plant response rating, Lambsquarters (lambsquarters; [10]): 20
- Plant response rating, Lambsquarters (lambsquarters; [11]): 60
- Plant response rating, Lambsquarters (lambsquarters; [12]): 70
- Lambsquarters plant response rating (lambsquarters; [7]): 0
- Lambsquarters plant response rating (lambsquarters; [8]): 0
- Plant response rating, Lambsquarters (lambsquarters; [13]): 60
- Plant response rating (scale of 0 to 100), Lambsquarters (lambsquarters; Preemergence, 250 g ai/ha): 65
- Plant response rating, Ragweed (ragweed; [9]): 10
- Plant response rating, Ragweed (ragweed; [10]): 20
- Plant response rating, Ragweed (ragweed; [11]): 20
- Plant response rating, Ragweed (ragweed; [12]): 55
- Ragweed plant response rating (ragweed; [7]): 35
- Ragweed plant response rating (ragweed; [8]): 5
- Plant response rating, Ragweed (ragweed; [13]): 5
- Plant response rating (scale of 0 to 100), Ragweed (ragweed; Preemergence, 250 g ai/ha): 10
- Plant response rating, Waterhemp (waterhemp; [9]): 10
- Plant response rating, Waterhemp (waterhemp; [10]): 20
- Plant response rating, Waterhemp (waterhemp; [11]): 20
- Plant response rating, Waterhemp (waterhemp; [12]): 25
- Waterhemp plant response rating (waterhemp; [7]): 30
- Waterhemp plant response rating (waterhemp; [8]): 35
- Plant response rating, Waterhemp (waterhemp; [13]): 65
- Plant response rating (scale of 0 to 100), Waterhemp (waterhemp; Preemergence, 250 g ai/ha): 55
- Plant response rating, Ducksalad (ducksalad): 98
- Plant response rating, Galium (galium; [9]): 10
- Plant response rating, Galium (galium; [10]): 15
- Plant response rating, Galium (galium; [11]): 10
- Plant response rating, Galium (galium; [12]): 45
- Galium plant response rating (galium; [7]): 0
- Galium plant response rating (galium; [8]): 5
- Plant response rating, Galium (galium; [13]): 85
- Plant response rating (scale of 0 to 100), Galium (galium; Preemergence, 250 g ai/ha): 85
- Plant response rating, Barnyardgrass (barnyardgrass [2]; [9]): 0
- Plant response rating, Barnyardgrass (barnyardgrass [2]; [10]): 20
- Plant response rating, Barnyardgrass (barnyardgrass [2]; [11]): 40
- Plant response rating, Barnyardgrass (barnyardgrass [2]; [12]): 90
- Barnyardgrass plant response rating (barnyardgrass [2]; [7]): 90
- Barnyardgrass plant response rating (barnyardgrass [2]; [8]): 85
- Plant response rating, Barnyardgrass (barnyardgrass [2]; [13]): 100
- Plant response rating (scale of 0 to 100; 0 is no effect, 100 is complete control), Barnyardgrass (barnyardgrass [2]; Preemergence, 250 g ai/ha): 100
- Plant response rating, Sedge, Umbrella (sedge, umbrella): 0
